From patent US5622936A (priority 1988, dated 1997) come the findings set out here.

A short description of data set [1]: Stability in methanolic solution (TLC analysis). It counts as physicochemical. The following applies: room temperature.
Data set [2] deals with glycosidases. Nature of the data set: Enzymatic cleavage of the glycosidic bond by glycosidases (release of IPM). The following applies: glycosidases / enzyme mixtures, TLC, NBP detection. In kind it is biochemical. The method, then: On incubation of the glycosides in HEPES or water with corresponding glycosidases a rapid cleavage of the glycosidic bond could be observed.
(§1) Because each in 50 and 51 two glycosidic bonds are present, showing the same (51β) or a different configuration (f.i. 50α), along with single glucosidases enzyme mixtures were used to check the enzymatic release of IPM. The enzymatic cieavage of the pure anomeric conjugates 50 and 51 was monitored by TLC; intact conjugates or the cleavage products 28α, 28β or IPM were detected with NBP.

Data set [3] has as its system mammary tumor cell-line 1C39. Briefly: Cytotoxic activity in vitro, mammary tumor cell line 1C39. In kind it is cell-based, rat. The source says:
(§2) This was confirmed by measuring the biological efficiency, namely the cytotoxic activity in vitro by studies done on a murine retrothelial sarcoma, and on rat mammary tumor cell lines, and on Eb/Esb cell lines.

Data set [4] concerns mammary tumor cell-line 1C32. Nature of the data set: Cytotoxic activity in vitro, mammary tumor cell line 1C32. It counts as cell-based, rat.
From the text: as §2

Data set [5] has as its system mammary tumor cell-line 1C29. Briefly: Cytotoxic activity in vitro, mammary tumor cell line 1C29. It counts as cell-based, rat.
From the text: as §2

For data set [6], the system named is bone-marrow. Briefly: Bone-marrow toxicity.
Data set [7] is described as follows: Acute toxicity in male CD2 F1 mice with autopsy. It counts as in vivo, mouse. The following applies: 100 and 1000 mg/kg i.p. The source says:
(§3) Autopsy of the animals after 28 days gave no findings. […] The result of autopsy (among others liver, kidneys, spleen, brain, bone marrow) on day 15 after the onset of treatment gave no finding.

In data set [8] the test system is retrothelial sarcoma cells.
For data set [9], the system named is β-glucosidase. Briefly: Cleavage by a single enzyme, β-glucosidase (TLC). It counts as biochemical.
From the text: as §1

Data set [10] can be described thus: Toxicity in BD6 rats with transplanted 1C32 tumor with autopsy. In kind it is in vivo, rat.
From the text: as §3

In the case of `O=P(NCCCl)(NCCCl)OC1O[C@H](CO)[C@@H](O[C@@H]2O[C@H](CO)[C@H](O)[C@H](O)[C@H]2O)[C@H](O)[C@H]1O` (some centres unmarked) [Compound 50], the stability entry in [1] was “stable”. The “cleavage required for the release of IPM” value in data set [2] is “cleavage of two different glycosidic bonds was required”.
For the molecule `O=P(NCCCl)(NCCCl)O[C@@H]1O[C@H](CO)[C@H](O)[C@H](O)[C@H]1O` [Compound 29β, β-D-Galactopyranosyl N,N'-di-(2-chloroethyl) phosphoric acid diamide], the “most effective agent (cytotoxic activity)” value in [3], in [4] and in [5] was “always the most effective agent” in each case.
As for `O=P(NCCCl)(NCCCl)O[C@@H]1O[C@H](CO)[C@@H](O)[C@H](O)[C@H]1O` [Compound 28β, β-D-Glucopyranosyl N,N'-di-(2-chloroethyl) phosphoric acid diamide], the bone-marrow toxicity result in [6] is reported as “very low”. Further, the acute toxicity entry in [7] was “no acute toxicity could be observed”. Besides, the autopsy entry in data set [7] (after 28 days) is reported as “no findings”.
As for `O=P(O)(NCCCl)NCCCl` [IPM], the cytotoxicity result in [8] is reported as “cytotoxicity”.
Regarding `O=P(NCCCl)(NCCCl)OC1O[C@H](CO)[C@@H](O[C@@H]2O[C@H](CO)[C@@H](O)[C@H](O)[C@H]2O)[C@H](O)[C@H]1O` (some centres unmarked) [Compound 51], the stability entry in [1] is “stable”.
For the molecule `O=P(NCCCl)(NCCCl)O[C@@H]1O[C@H](CO)[C@@H](O[C@@H]2O[C@H](CO)[C@@H](O)[C@H](O)[C@H]2O)[C@H](O)[C@H]1O` [Compound 51β, 4-O-(β-D-Glucopyranosyl) β-D-glucopyranosyl N,N'-di-(2-chloroethyl) phosphoric acid diamide], in [9], the “complete cleavage by a single enzyme” value is given as “could be completely cleaved by a single enzyme”.
Regarding `O=P(NCCCl)(NCCCl)O[C@H]1O[C@H](CO)[C@@H](O[C@@H]2O[C@H](CO)[C@@H](O)[C@H](O)[C@H]2O)[C@H](O)[C@H]1O` [Compound 51α, 4-O-(β-D-glucopyranosyl) α-D-glucopyranosyl N,N'-di-(2-chlorethyl) phosphoric acid diamide], the “cleavage required for the release of IPM” value in data set [2] was “cleavage of two different glycosidic bonds was required”.
Take `O=P(NCCCl)(NCCCl)OC1O[C@H](CO)[C@H](O)[C@H](O)[C@H]1O` (some centres unmarked) [Gal-IPM]: the toxicity entry in data set [10] (BD6 rats with transplanted 1C32 tumor, 5-122.5 and 5-245 mg/kg, resp.) is recorded as “did not show any toxicity”. Besides, in data set [10] (day 15 after onset of treatment, liver, kidneys, spleen, brain, bone marrow), the autopsy result was “no finding”.
